In US7335248B2, “Marine antifouling coating compositions” (Novus International, Inc., priority 2005, dated 2008):
Values joined by “and” are separate entries in the source; they are usually repeats but may differ in a detail not shown here. Equal entries are not always repeated.

Key:
barnacles [1] = assay: Six month static immersion fouling test of painted PVC panels (open ocean, Tuticorin, India); assay type: in vivo; settings: for Total barnacle Count: both duplicate panels; for Mean ± SD (barnacle count): four panel surfaces; for efficacy / barnacle settlement: copper self-polishing and metal-free ablative coatings, six months of exposure
From the text: The reported data were extracted from the raw data as described below, and are shown as total barnacle counts for both duplicate panels of each test formulation. In Table 4, the mean and standard deviation of the data derived from the four panels' surfaces of the duplicate panels for each group. The barnacle counts along the edges were not considered in this evaluation because of the expected uneven coating and inherent tendency of barnacles to first attach to edges. In addition, coatings along the edges can be easily damaged or uneven. Thus, for evaluation purposes only the coated surfaces of the flat areas were considered for this evaluation.
Zinc Omadine was used as the positive control for this series of tests. It is important to note here that fouling is continuous throughout the year at the Tuticorin, India site and the degree of settlement is generally the same for the same coating system.

barnacle cyprids = assay: Barnacle cyprid settlement assay (method of Rittschof et al.), EC50 by probit analysis; assay type: in vivo, Balanus amphitrite amphitrite
Experimental: In this case, the defined effect is that the cyprids have not settled and have not attached to the Petri dish. Thus, in the attached data set, the “set” column indicates the total number of cyprid larvae that have settled and attached on the surface of the Petri dish and “non-set” indicates the total number of cyprids that remain swimming in the seawater and have not settled on the surface of the Petri dish.
Briefly, the barnacle adults are cultured in the laboratory and allowed to spawn naturally. The larvae are harvested and grown in artificial culture systems until they reach the cyprid stage at which time the larvae become competent to attach to surfaces. Once attached, the cyprids transform into a pinhead barnacle, thus becoming permanently attached to the surface. Rittschof D, Clare A S, Gerhart D J, Avelin Mary, Bonavetura J (1991) Barnacle in vitro assays for biologically active substances: toxicity and settlement assays using mass cultured Balanus amphitrite amphitrite Darwin. Biofouling (1992) 6:115-122.
(§1) Five replicates (e.g., a-e) for each concentration and the control were collected.

barnacles [2] = assay: Nine month static immersion testing in the Indian Ocean; assay type: in vivo; settings: 9-month static immersion
From the text: Table 5 summarizes the anti-fouling data from the nine-month immersion test, performed as described above for the six month tests.

[3] = Solubility in seawater at the levels added in the cyprid assay; assay type: physicochemical; settings: at the levels added (up to 0.1 mg/ml)
From the text: as §1

[4] = CUAB coating, 5% (w/w), 6 months
[5] = CUSP coating, 5% (w/w), 6 months
[6] = MFAB coating, 5% (w/w), 6 months
[7] = 1e-5 mg/ml, Total of five replicates
[8] = 1e-4 mg/ml, Total of five replicates
[9] = 0.001 mg/ml, Total of five replicates
[10] = 0.01 mg/ml, Total of five replicates
[11] = 0.1 mg/ml, Total of five replicates
[12] = CUAB coating, 1% (w/w), 6 months
[13] = CUAB coating, 3% (w/w), 6 months
[14] = CUAB coating, 10% (w/w), 6 months
[15] = CUSP coating, 1% (w/w), 6 months
[16] = CUSP coating, 3% (w/w), 6 months
[17] = CUSP coating, 10% (w/w), 6 months
[18] = MFAB coating, 1% (w/w), 6 months
[19] = MFAB coating, 3% (w/w), 6 months
[20] = MFAB coating, 10% (w/w), 6 months

Compound: [O-][n+]1ccccc1[S-].[O-][n+]1ccccc1[S-].[Zn+2] [Zn Omadine, zinc salt of pyrithione, reference compound]
- Total barnacle Count (barnacles [1]; [4]): 167
- Mean ± SD (barnacle count) (barnacles [1]; [4]): 41.8 ± 23.3
- Total barnacle Count (barnacles [1]; [5]): 33
- Mean ± SD (barnacle count) (barnacles [1]; [5]): 8.3 ± 4.0
- Total barnacle Count (barnacles [1]; [6]): 113
- Mean ± SD (barnacle count) (barnacles [1]; [6]): 28 ± 15.0
- barnacle coverage of panels (barnacles [1]; MFSP coating, 5%, 6 months): fully covered by barnacles
- efficacy / barnacle settlement (barnacles [1]): substantial settlement

Compound: CSCCC(O)C(=O)[O-].CSCCC(O)C(=O)[O-].[Cu+2] (centres unmarked) [HMTBA-Cu, copper 2-hydroxy-4-methylthiobutanoate chelate]
- % of set (barnacle cyprids; [7]): 74%
- Non set (barnacle cyprids; [7]): 86
- Set (barnacle cyprids; [7]): 241
- % of set (barnacle cyprids; 1e-5 mg/ml, single replicate): 77% and 70% and 74% and 68% and 82%
- Non set (barnacle cyprids; 1e-5 mg/ml, single replicate): 14 and 21 and 15 and 25 and 11
- Set (barnacle cyprids; 1e-5 mg/ml, single replicate): 46 and 48 and 42 and 54 and 51
- % of set (barnacle cyprids; [8]): 71%
- Non set (barnacle cyprids; [8]): 89
- Set (barnacle cyprids; [8]): 213
- % of set (barnacle cyprids; 1e-4 mg/ml, single replicate): 66% and 79% and 63% and 73% and 72%
- Non set (barnacle cyprids; 1e-4 mg/ml, single replicate): 11 and 12 and 29 and 16 and 21
- Set (barnacle cyprids; 1e-4 mg/ml, single replicate): 21 and 46 and 49 and 43 and 54
- % of set (barnacle cyprids; [9]): 53%
- Non set (barnacle cyprids; [9]): 155
- Set (barnacle cyprids; [9]): 173
- % of set (barnacle cyprids; 0.001 mg/ml, single replicate): 46% and 56% and 42% and 55% and 65%
- Non set (barnacle cyprids; 0.001 mg/ml, single replicate): 27 and 34 (2×) and 42 and 18
- Set (barnacle cyprids; 0.001 mg/ml, single replicate): 23 and 44 and 31 and 41 and 34
- appearance and swimming behavior of cyprids (barnacle cyprids; 0.01 mg/ml and higher (so in the source)): no adverse effects
- % of set (barnacle cyprids; [10]): 10%
- Non set (barnacle cyprids; [10]): 285
- Set (barnacle cyprids; [10]): 30
- % of set (barnacle cyprids; 0.01 mg/ml, single replicate): 9% and 6% and 8% (2×) and 24%
- Non set (barnacle cyprids; 0.01 mg/ml, single replicate): 79 and 66 and 59 and 25 and 56
- Set (barnacle cyprids; 0.01 mg/ml, single replicate): 8 (2×) and 4 and 5 (2×)
- toxic effects on the cyprids (barnacle cyprids; 0.1 mg per ml): death of all cyprids
- % of set (barnacle cyprids; [11]): 0%
- Non set (barnacle cyprids; [11]): 314
- Set (barnacle cyprids; [11]): 0
- % of set (barnacle cyprids; 0.1 mg/ml, single replicate): 0%
- Non set (barnacle cyprids; 0.1 mg/ml, single replicate): 69 and 94 and 54 and 59 and 38
- Set (barnacle cyprids; 0.1 mg/ml, single replicate): 0
- EC50 (barnacle cyprids; barnacle cyprids not settled/attached to Petri dish, probit analysis): 1.8 µg/mL
- inhibition of barnacle cyprid settlement (barnacle cyprids; in vivo): biologically active as inhibitors of barnacle cyprid settlement
- SLOPE (barnacle cyprids; probit analysis, barnacle settlement): 1.567
- LS MEAN BARNACLES (barnacles [2]; CUSP PAINT): 16
- LS MEAN BARNACLES (barnacles [2]; MFAB PAINT): 1.25
- solubility in seawater [3]: soluble in seawater at the levels added
- Total barnacle Count (barnacles [1]; [12]): 472
- Mean ± SD (barnacle count) (barnacles [1]; [12]): 118.0 ± 158.0
- Total barnacle Count (barnacles [1]; [13]): 170
- Mean ± SD (barnacle count) (barnacles [1]; [13]): 42.5 ± 21.1
- Total barnacle Count (barnacles [1]; [4]): 126
- Mean ± SD (barnacle count) (barnacles [1]; [4]): 31.4 ± 46.4
- Total barnacle Count (barnacles [1]; [14]): 123
- Mean ± SD (barnacle count) (barnacles [1]; [14]): 30.8 ± 12.9
- Total barnacle Count (barnacles [1]; [15]): 4
- Mean ± SD (barnacle count) (barnacles [1]; [15]): 1.0 ± 1.7
- Total barnacle Count (barnacles [1]; [16]): 6
- Mean ± SD (barnacle count) (barnacles [1]; [16]): 1.5 ± 2.6
- Total barnacle Count (barnacles [1]; [5]): 8
- Mean ± SD (barnacle count) (barnacles [1]; [5]): 2.0 ± 2.4
- Total barnacle Count (barnacles [1]; [17]): 9
- Mean ± SD (barnacle count) (barnacles [1]; [17]): 2.3 ± 1.9
- Total barnacle Count (barnacles [1]; [18]): 8
- Mean ± SD (barnacle count) (barnacles [1]; [18]): 2.0 ± 2.4
- Total barnacle Count (barnacles [1]; [19]): 13
- Mean ± SD (barnacle count) (barnacles [1]; [19]): 3.3 ± 4.5
- Total barnacle Count (barnacles [1]; [6]): 11
- Mean ± SD (barnacle count) (barnacles [1]; [6]): 2.8 ± 4.2
- Total barnacle Count (barnacles [1]; [20]): 4
- Mean ± SD (barnacle count) (barnacles [1]; [20]): 1.0 ± 1.7
- efficacy / barnacle settlement (barnacles [1]): significant efficacy
